ChEMBL document CHEMBL5647694, “Novel orally bioavailable EZH1/2 dual inhibitors with greater antitumor efficacy than an EZH2 selective inhibitor” (Cancer Sci, 2017)

Legend:
[1] = target: Phosphorylase b kinase gamma catalytic chain, liver/testis isoform (Homo sapiens) (UniProt P15735); assay: Inhibition of N-terminal GST-fused full length human PHKG2 (1 to 406 residues) expressed in baculovirus expression system using GS peptide as substrate at 1 uM in presence of ATP by Mobility shift assay
[2] = target: Aurora kinase C (Homo sapiens) (UniProt Q9UQB9); assay: Inhibition of N-terminal GST-fused full length human AurC (1 to 275 residues) expressed in baculovirus-infected Sf21 cells using Kemptide as substrate at 1 uM in presence of ATP by Mobility shift assay
[3] = target: Platelet-derived growth factor receptor alpha (Homo sapiens) (UniProt P16234); assay: Inhibition of N-terminal GST-tagged human PDGFR-alpha cytoplasmic domain (550 to 1089 residues) expressed in baculovirus-infected Sf21 cells using CSKtide as substrate at 1 uM in presence of ATP by Mobility shift assay
[4] = target: Serine/threonine-protein kinase PLK2 (Homo sapiens) (UniProt Q9NYY3); assay: Inhibition of N-terminal GST-fused full length human PLK2 (1 to 685 residues) expressed in baculovirus expression system using CHK2 peptide as substrate at 1 uM in presence of ATP by IMAP
[5] = target: PI3-kinase p110-alpha/p85-alpha (Homo sapiens) (UniProt P27986+P42336); assay: Inhibition of N-terminal DYKDDDDK tagged, biotinylated full length human PIK3CA (1 to 1068 residues)/human PIK3R1 (1 to 724 residues) expressed in baculovirus expression system using PI(4,5)P2 as substrate at 1 uM in presence of ATP by ADP-Glo assay
[6] = target: Serine/threonine-protein kinase Nek7 (Homo sapiens) (UniProt Q8TDX7); assay: Inhibition of N-terminal GST-fused full length human NEK7 (1 to 302 residues) expressed in baculovirus expression system using CDK7 peptide as substrate at 1 uM in presence of ATP by Mobility shift assay
[7] = target: Ephrin type-A receptor 5 (Homo sapiens) (UniProt P54756); assay: Inhibition of N-terminal GST-fused human EPHA5 catalytic domain (662 to 948 residues) expressed in baculovirus-infected Sf21 cells using Blk/Lyntide as substrate at 1 uM in presence of ATP by Mobility shift assay
[8] = target: RAC-alpha serine/threonine-protein kinase (Homo sapiens) (UniProt P31749); assay: Inhibition of N-terminal GST-tagged human AKT1 catalytic domain (104 to 480 residues) co-expressed with His-tagged PDK1 (1 to 556 residues) in baculovirus-infected Sf21 cells using Crosstide as substrate at 1 uM in presence of ATP by Mobility shift assay
[9] = target: Casein kinase II alpha/beta (Homo sapiens) (UniProt P67870+P68400); assay: Inhibition of N-terminal GST-fused full length human CK2alpha1 (1 to 391 residues)/His-tagged human CK2beta (1 to 215 residues) expressed in baculovirus expression system using CK2tide as substrate at 1 uM in presence of ATP by Mobility shift assay
[10] = target: Activated CDC42 kinase 1 (Homo sapiens) (UniProt Q07912); assay: Inhibition of N-terminal GST-fused wild type human ACK catalytic domain (110 to 476 residues) expressed in baculovirus-infected Sf21 cells using WASP peptide as substrate at 1 uM in presence of ATP by Mobility shift assay
[11] = target: SRSF protein kinase 3 (Homo sapiens) (UniProt Q9UPE1); assay: Inhibition of N-terminal GST-fused full length human MSSK1 (1 to 567 residues) expressed in baculovirus expression system using DYRKtide-F as substrate at 1 uM in presence of ATP by Mobility shift assay
[12] = target: Mitogen-activated protein kinase 14 (Homo sapiens) (UniProt Q16539); assay: Inhibition of N-terminal GST-fused truncated human p38alpha (9 to 352 residues) expressed in Escherichia coli expression system using Modified Erktide as substrate at 1 uM in presence of ATP by Mobility shift assay
[13] = target: Serine/threonine-protein kinase SIK2 (Homo sapiens) (UniProt Q9H0K1); assay: Inhibition of N-terminal GST-fused full length human QIK (1 to 926 residues) expressed in baculovirus expression system using AMARA peptide as substrate at 1 uM in presence of ATP by Mobility shift assay
[14] = target: Eukaryotic elongation factor 2 kinase (Homo sapiens) (UniProt O00418); assay: Inhibition of N-terminal GST-fused full length human EEF2K (1 to 725 residues) expressed in Escherichia coli expression system using EEF2Ktide as substrate at 1 uM in presence of ATP by Mobility shift assay
[15] = target: Ribosomal protein S6 kinase beta-2 (Homo sapiens) (UniProt Q9UBS0); assay: Inhibition of N-terminal GST-fused full length human p70S6Kbeta (1 to 482 residues) expressed in baculovirus expression system using S6K2 peptide as substrate at 1 uM in presence of ATP by Mobility shift assay
[16] = target: Casein kinase II alpha'/ beta (Homo sapiens) (UniProt P67870+P19784); assay: Inhibition of N-terminal GST-fused full length human CK2alpha2 (1 to 350 residues)/His-tagged human CK2beta (1 to 215 residues ) expressed in baculovirus expression system using CK2tide as substrate at 1 uM in presence of ATP by Mobility shift assay
[17] = target: Macrophage-stimulating protein receptor (Homo sapiens) (UniProt Q04912); assay: Inhibition of N-terminal GST-tagged human RON cytoplasmic domain (979 to 1400 residues) expressed in baculovirus-infected Sf21 cells using Srctide as substrate at 1 uM in presence of ATP by Mobility shift assay
[18] = target: Serine/threonine-protein kinase Nek1 (Homo sapiens) (UniProt Q96PY6); assay: Inhibition of N-terminal GST-fused human NEK1 catalytic domain (1 to 505 residues) expressed in baculovirus expression system using CDK7 peptide as substrate at 1 uM in presence of ATP by Mobility shift assay
[19] = target: Protein kinase C epsilon type (Homo sapiens) (UniProt Q02156); assay: Inhibition of N-terminal GST-fused human full length PKC-epsilon (1 to 737 residues ) expressed in baculovirus expression system using PKC peptide as substrate at 1 uM in presence of ATP by Mobility shift assay
[20] = target: Receptor tyrosine-protein kinase erbB-4 (Homo sapiens) (UniProt Q15303); assay: Inhibition of N-terminal GST-fused human HER4 cytoplasmic domain (676 to 1308 residues) expressed in baculovirus infected Sf21 cells using Srctide as substrate at 1 uM in presence of ATP by Mobility shift assay
[21] = Inhibition of N-terminal GST-tagged human TRKB cytoplasmic domain (456 to 825 residues) expressed in baculovirus-infected Sf21 cells using Srctide as substrate at 1 uM in presence of ATP by Mobility shift assay; settings: condition cancer
[22] = target: Ribosomal protein S6 kinase alpha-4 (Homo sapiens) (UniProt O75676); assay: Inhibition of N-terminal GST-fused full length human MSK2 (1 to 772 residues) expressed in baculovirus expression system using Crosstide as substrate at 1 uM in presence of ATP by Mobility shift assay

| Compound | inhibition [1] [%] | inhibition [2] [%] | inhibition [3] [%] | inhibition [4] [%] | inhibition [5] [%] | inhibition [6] [%] | inhibition [7] [%] | inhibition [8] [%] | inhibition [9] [%] | inhibition [10] [%] | inhibition [11] [%] | inhibition [12] [%] | inhibition [13] [%] | inhibition [14] [%] | inhibition [15] [%] | inhibition [16] [%] | inhibition [17] [%] | inhibition [18] [%] | inhibition [19] [%] | inhibition [20] [%] | further results |
| --- | --- | --- | --- | --- | --- | --- | --- | --- | --- | --- | --- | --- | --- | --- | --- | --- | --- | --- | --- | --- | --- |
| Cc1cc(C)c(CNC(=O)c2cc(Br)c3c(c2C)O[C@@](C)([C@H]2CC[C@H](N(C)C)CC2)O3)c(=O)[nH]1 | 0.7 | -9.2 | -6.1 | 11.8 | 9.8 | 2.8 | -6.3 | -2.9 | -5.8 | 0.2 | -6.3 | -7.2 | -0.5 | -3 | 2.1 | -5.5 | -4.9 | -7 | 17 | 2.6 | inhibition at 1 µM [21]: -7.7%; inhibition [22]: 0.1% |
| Cc1cc(C)c(CNC(=O)c2cc(Cl)c3c(c2C)O[C@@](C)([C@H]2CC[C@H](N(C)C)CC2)O3)c(=O)[nH]1 [VALEMETOSTAT] | -2 | 21.9 | -4.4 | 4.8 | 0.6 | 1.6 | -3.4 | -2.9 | -4 | -1.2 | -5.4 | -8 | -1.9 | -0.3 | 5.2 | -4.7 | -3.5 | -7 | 16.4 | -0.2 | inhibition at 1 µM [21]: -8.7%; inhibition [22]: -2% |
